Source: US20230226198A1, “Artemisinin Derivatives” (DA ZEN THERANOSTICS, INC., priority 2019, published 2023)
Like-named read-outs stand apart in the source and are kept apart here.

Key:
[1] = tested on: MDVR cells (Enzalutamide-resistant C4-2B prostate cancer cells); experiment: MTT cell viability / IC50 assay, MDVR; type: cell-based; conditions: Homo sapiens
Experimental: Cell culture: In the following examples, unless otherwise specified, all cell lines are purchased from American Type Culture Collection and cultured in American Type Culture Collection (ATCC)-recommended media, with fetal bovine serum (FBS) to a final concentration of 10% and 1× penicillin/streptomycin at 37° C. with 5% CO2 in a cell culture incubator, unless otherwise specified. Unless otherwise specified, culture is 2D. Where culture is 3D, low attachment plates are used, with the same media. C4-2B (ATCC® CRL-3315™, human prostate cancer cells of epithelial morphology) parental cell line and drug-resistant cells derived therefrom) are cultured in RPMI-1640 with 10% FBS. MDVR cells (an Enzalutamide-resistant variety of C4-2B prostate cancer cells formed as described below) are cultured as indicated for the parental C4-2B cells. Caki-1 cells (human clear cell renal cell carcinoma cells) are cultured in ATCC-formulated McCoy's 5a Medium Modified (ATCC Catalog No. 30-2007) with 10% FBS. PC3 cells (ATCC® CRL-1435™, a human prostate cancer cell line of epithelial morphology initiated from a bone metastasis of a grade IV prostatic adenocarcinoma) are cultured in F-12K with 10% FBS. 22RV1 Prostate Cancer (PC) cells (ATCC® CRL-2505™, a human prostate carcinoma cell line of epithelial morphology) are cultured in RPMI-1640 with 10% FBS. DU145 cells (ATCC® HTB-81™, a human cell line derived from a prostate-originating brain metastase, not detectably hormone sensitive, not expressing prostate antigen; forms adenocarcinoma grade II in nude mice) are cultured in ATCC-formulated Eagle's Minimum Essential Medium (EMEM, Catalog No. 30-2003). H446 cells (ATCC® HTB-171™, a human small cell carcinoma SC lung cancer (SCLC) cell line derived from a metastatic site) are cultured in RPMI-1640 with 10% FBS. H358 cells (ATCC® CRL-5807™, a human non-small cell lung cancer (NSCLC) cell line that expresses protein and RNA of SP-A, the major lung surfactant associated protein, and produces tumors in athymic nude mice) are cultured in RPMI-1640 Medium with 10% FBS. BxPC3 cells (ATCC® CRL-1687™, an adenocarcinoma-derived pancreatic cancer cell line that expresses pancreas cancer specific antigen and carcinoembryonic antigen and forms tumors in nude mice) are cultured in RPMI-1640 with 10% FBS.
Resistant prostate cancer cell lines MDVR and AbiR: MDVR cells are Enzalutamide-resistant cells, AbiR are Abiraterone acetate resistant cells, formed from parental C4-2B prostate cancer cells as follows. A cell assay is performed exposing cells cultured as described above to various drugs indicated below for 72 hours. Parental C4-2B cells are C4-2B non-resistant cells not previously exposed to cancer drugs. Drug-resistant C4-2B cells are created by prolonged exposure to the relevant drug, i.e. Enzalutamide for MDVR, and Abiraterone acetate for AbiR cells, at initially sub-lethal and gradually increasing concentrations until resistance is achieved.
Example 1: A cell assay is performed exposing cells cultured as described above to various drugs indicated below for 24 hours unless otherwise indicated. Each of the cell lines is treated either with a THAD (e.g. DZ-DHA-ether, MI-148-bis-DHA), or for comparison, with the DHA mono-ester “DZ-DHA”; alternatively/additionally, DZ1 and/or unconjugated DHA may serve as comparants. For each cell line, the IC50 is determined for each drug in concentrations from 0 to 100 μM. […] In the controls (not shown in the figures), the cells are exposed to DMSO (vehicle) for a final concentration that equals the highest concentration of the drug tested, to a maximum concentration less than 0.1% v/v. 4 hours before culture end/SDS addition, 10 μL MTT (3-(4,5-Dimethyl-2-thiazolyl)-2,5-diphenyl-2H-tetrazolium bromide, Sigma-Aldrich) is added to wells containing the cells. At the end of culture, 100 μl 10% SDS is added and then the plate containing the cells is placed in a 37° C. cell culture incubator for 8 hours. […]

H446 cells = experiment: MTT cell viability / IC50 assay, H446; type: cell-based; conditions: Homo sapiens, NCI-H446, 48 h
Experimental: Cell culture: In the following examples, unless otherwise specified, all cell lines are purchased from American Type Culture Collection and cultured in American Type Culture Collection (ATCC)-recommended media, with fetal bovine serum (FBS) to a final concentration of 10% and 1× penicillin/streptomycin at 37° C. with 5% CO2 in a cell culture incubator, unless otherwise specified. Unless otherwise specified, culture is 2D. Where culture is 3D, low attachment plates are used, with the same media. C4-2B (ATCC® CRL-3315™, human prostate cancer cells of epithelial morphology) parental cell line and drug-resistant cells derived therefrom) are cultured in RPMI-1640 with 10% FBS. MDVR cells (an Enzalutamide-resistant variety of C4-2B prostate cancer cells formed as described below) are cultured as indicated for the parental C4-2B cells. Caki-1 cells (human clear cell renal cell carcinoma cells) are cultured in ATCC-formulated McCoy's 5a Medium Modified (ATCC Catalog No. 30-2007) with 10% FBS. […]
Each of the cell lines is treated either with a THAD (e.g. DZ-DHA-ether, MI-148-bis-DHA), or for comparison, with the DHA mono-ester “DZ-DHA”; alternatively/additionally, DZ1 and/or unconjugated DHA may serve as comparants. […] The absorbance density of the supernatant is read on a 96-well microplate reader at wavelength 595 nm. […]

Structure (SMILES): C[C@@H]1CC[C@H]2[C@@H](C)C(OC(=O)CCCCCN3/C(=C/C=C4\CCCC(/C=C/C5=[N+](CCCCS(=O)(=O)[O-])c6ccccc6C5(C)C)=C4Cl)C(C)(C)c4ccccc43)O[C@@H]3OC4(C)CC[C@@H]1[C@]32OO4 (stereo in doubt) [DZ3a]
- IC50 ([1]; ENZ-resistant C4-2B cells (MDVR), unit inferred, read-out: IC50 (FIG. 2B description)): 3.8 µM
- IC50 ([1]; MDVR, 24 hours, relative IC50, read-out: IC50): 3.8 to 5.9 µM
- IC50 ([1]; MDVR, 48 h, read-out: IC50): 5.9 µM
- IC50 (H446 cells): 12.6 µM

Structure (SMILES): C[C@H]1[C@@H](O)O[C@@H]2O[C@@]3(C)CC[C@H]4[C@H](C)CC[C@@H]1[C@@]24OO3 [DHA, dihydroartemisinin]
- IC50 ([1]; MDVR, 48 h, read-out: IC50): 390 µM
- IC50 (H446 cells): 287 µM
